For series [1], the system named is MDA-MB-436. The series can be described thus: Induction of apoptosis in human MDA-MB-436 cells assessed as membrane blebbing by phase contrast microscopy. The class given is functional, cell-based.
For series [2], the system named is MDA-MB-231. The series can be described thus: Induction of apoptosis in human MDA-MB-231 cells assessed as increase in caspase-3 cleavage after 12 to 36 hrs by Western blot method. Type of series: functional, cell-based. On the technique in general: A western blot detects proteins with antibodies after separation by electrophoresis.
Series [3] relates to MDA-MB-231. The series can be described thus: Antitumor activity against human MDA-MB-231 cells xenografted in ig dosed BALB/c nude mouse assessed as tumor growth inhibition administered once a day measured every 3 days for 24 days during compound dosing. The class given is functional, organism-based. (Xenograft models place foreign cells or tissue in a host animal.)
Series [4] deals with MDA-MB-231. The series can be described thus: Induction of apoptosis in human MDA-MB-231 cells assessed as formation of apoptotic bodies by phase contrast microscopy. Type of series: functional, cell-based.
The test system of series [5] is MDA-MB-436. The series can be described thus: Antitumor activity against human MDA-MB-436 cells xenografted in ig dosed BALB/c nude mouse assessed as tumor growth inhibition administered once a day measured every 3 days for 24 days during compound dosing. Type of series: functional, organism-based.
The test system of series [6] is MDA-MB-436. The series can be described thus: Antiproliferative activity against human MDA-MB-436 cells assessed as decrease in cell viability after 24 hrs by MTT assay. The class given is functional, cell-based. As to conditions: MDA-MB-436, 24 h. (Tetrazolium assays rely on reduction of a dye to a coloured formazan, in cell work by metabolically active cells.)
The test system of series [7] is Mus musculus. As to the kind of experiment: In vivo inhibition of eEF2K phosphorylation in tumor of BALB/c nude mouse xenografted with human MDA-MB-231 cells at 25 to 100 mg/kg, ig qd measured after 24 days by immunohistochemical analysis. The class given is functional, organism-based.
Series [8] deals with Mus musculus. As to the kind of experiment: Toxicity in BALB/c nude mouse xenografted with human MDA-MB-436 cells assessed as body weight loss at 50 to 100 mg/kg, ig qd measured every 3 days for 24 days during compound dosing. The class given is organism-based. The note with it: in vivo, po, 576 h.
In series [9] the test system is Mus musculus. As to the kind of experiment: Toxicity in BALB/c nude mouse xenografted with human MDA-MB-231 cells assessed as body weight loss at 50 to 100 mg/kg, ig qd measured every 3 days for 24 days during compound dosing. The class given is organism-based. As to conditions: in vivo, po, 576 h.
The subject of series [10] is MDA-MB-231. The series can be described thus: cells. As to conditions: Homo sapiens, MDA-MB-231, 24 h.
Description: Antiproliferative activity against human MDA-MB-231 cells assessed as decrease in cell viability after 24 hrs by MTT assay
The test system of series [11] is Mus musculus. The series can be described thus: Toxicity in BALB/c nude mouse xenografted with human MDA-MB-231 cells assessed as decrease in spleen weight at 100 mg/kg, ig qd measured after 24 days. The class given is organism-based. The note with it: in vivo, po, 576 h.
Series [12] concerns MDA-MB-436. As to the kind of experiment: Induction of apoptosis in human MDA-MB-436 cells assessed as increase in caspase-3 cleavage after 12 to 36 hrs by Western blot method. Type of series: functional, cell-based.

Calls of active or inactive are those of the source. The calls are words filed in the database; no cut-off is given here.

As usually defined, the IC50 is the concentration that inhibits the measured activity by half. Take `N#Cc1ccc(S(=O)(=O)NC(CC(=O)O)c2ccc(Cl)cc2Cl)cc1` (configuration not stated): the outcome in [1], in [2], in series [4] and in series [12] was Active. Also, the TGI result in series [3] and in series [5] was “Dose-dependent effect” each time. In addition, the IC50 in series [6] was 19.8 µM; in series [10], 12.6 µM. For the same molecule, in series [7], the inhibition result is “Active”. For the same molecule, the Activity result in [8] is “Non-Toxic”; in series [9] it was “Non-Toxic”; in [11] it was “Toxic”.

(Values after ChEMBL document CHEMBL4138216, “Design, synthesis and structure-activity relationship of a focused library of β-phenylalanine derivatives as novel eEF2K inhibitors with apoptosis-inducing mechanisms in breast cancer” (Eur J Med Chem, 2018).)
